Patent US20190010461A1, “HUMAN PLURIPOTENT STEM CELL-BASED SCREENING FOR SMOOTH MUSCLE CELL DIFFERENTIATION AND DISEASE” (Wisconsin Alumni Research Foundation, priority 2017, published 2019)

Experiments:
[1] = test system: MYH11 promoter-driven luciferase activity; test: High-throughput screening, MYH11-Nluc-2A-Tom reporter human ES cell line, luciferase assay; type: cell-based
Protocol: FIGS. 1A-1C depict a schematic of high-throughput screening. […] The cells were passaged at day 4 and seeded on the 96-well plate for screening (2×10^6 cells/plate). After the reporter cell line was differentiated into mesoderm, small molecules were added to the cells from day 4 to day 14. FIG. 1B depicts the results of the screening in two batches. The luciferase assay results of individual small molecules were normalized to the average reads of all samples for each batch. The small molecules were selected for further analysis when the normalized reads were greater than “average+3×STDEV”. FIG. 1C depicts optimizing the concentration of the selected small molecules.
The cells were treated with 50 ng/ml FGF2 and 20 ng/ml BMP4 for another two days. The cells were passaged at day 4 and seeded on the 96-well plate for screening (2×10^6 cells/plate). The compounds were added from day 4-14. The Luciferase substrate (1000× dilution) (Nano-Glo Luciferase Assay system, Promega) was added to the medium for 15 min and luminescence was measured. An increase in luminescence indicates increased MYH11 expression, which is an indicator of the contractile smooth muscle cell phenotype. The Thomson custom stem cell Modulator 1, GSK-kinase inhibitor library, SellekChem Kinase inhibitor library, Analyticon NATx library, Prestwick Chemical Library, GlaxoSmithKline Protein Kinase Inhibitors, and part of Enamine Representative Diversity library were used for screening.
High-throughput screening directs contractile smooth muscle cell differentiation—The construction of the MYH11-NLuc-tdTomato human ES cell reporter line generated by CRISPR/Cas9 technology is described in FIGS. 6A-6H. The reporter cell line was differentiated into mesoderm in E8BAC medium (Zhang et al., 2017) for two days and treated with FGF2 and BMP4 to further mature mesoderm for another two days. The cells were then passaged into a 96-well plate and exposed to small molecules for 10 days using a customized robotic workstation (FIG. 1A). The workstation was designed through collaboration with TECAN, which enables us to perform the automatic high-throughput screening at specific time point and in long-term. The medium were changed every other day and the small molecules were added during the feeding. […] We then validated these hits and optimized their concentration.

[2] = test system: primary human aortic SMCs (AoSMCs)
Source text: Scale bar=500 μm. […] Scale bar=100 μm. […] Data are represented as mean±SD.

Cc1cccc(-c2n[nH]cc2-c2ccc3ncccc3n2)n1 [RepSox, RepSox (SJN 2511)]
effectiveness at promoting MYH11 expression among validated hits ([1]; hits validated, concentration optimized): most effective | promotes MYH11+ SMC differentiation (increased MYH11 promoter-driven luciferase activity) ([1]; small molecules added day 4-14, selected when normalized reads > average+3×STDEV): promotes MYH11^+ SMC differentiation | contractile gene expression of AoSMCs ([2]; 100 μM RepSox for three days versus DMSO): increase | proliferation rate of AoSMCs ([2]; 100 μM RepSox for two days versus DMSO): reduced | contraction ability of AoSMCs ([2]; 100 μM RepSox for two days, then 100 μM carbachol): without affecting | cell migration rate of AoSMCs ([2]; 100 μM RepSox versus DMSO): reduced
